Consider 18 molecules from PubChem BioAssay AID256 (DTP/NCI, 2004).

The assay concerns CD2F1 mice, L1210 leukemia ip, survival T/C. The assay can be described thus: NCI In Vivo Anticancer Drug Screen. Data for tumor model L1210 Leukemia (intraperitoneal) in CD2F1 (CDF1) mice. As to conditions: higher = longer survival. The method, boiled down: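 Activity against a transplanted murine tumor was judged by comparing the compound group with a vehicle group. The outcome in the treated animals was divided by that in the controls.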

Where [1] appears, read: endpoint: mean survival time, dose: 10.0 mg/kg/injection, schedule: Q01DX009 (ip), vehicle: Klucel (hydroxypropylcellulose) (HPC).
Setting [2] is: endpoint: mean survival time, dose: 100.0 mg/kg/injection, schedule: Q04DX003 (ip), vehicle: saline with Tween-80.
[3] abbreviates: endpoint: mean survival time, dose: 200.0 mg/kg/injection, schedule: Q04DX003 (ip), vehicle: saline with Tween-80.
Setting [4] is: endpoint: mean survival time, dose: 12.5 mg/kg/injection, schedule: Q01DX009 (ip), vehicle: saline with Tween-80.
[5] abbreviates: endpoint: mean survival time, dose: 25.0 mg/kg/injection, schedule: Q01DX009 (ip), vehicle: saline with Tween-80.
Setting [6] is: endpoint: mean survival time, dose: 50.0 mg/kg/injection, schedule: Q01DX009 (ip), vehicle: saline with Tween-80.
[7] abbreviates: endpoint: mean survival time, dose: 100.0 mg/kg/injection, schedule: Q01DX009 (ip), vehicle: saline with Tween-80.
Setting [8] is: endpoint: mean survival time, dose: 200.0 mg/kg/injection, schedule: Q01DX009 (ip), vehicle: saline with Tween-80.
Where [9] appears, read: endpoint: mean survival time, dose: 400.0 mg/kg/injection, schedule: Q01DX009 (ip), vehicle: saline with Tween-80.
[10] abbreviates: endpoint: mean survival time, dose: 400.0 mg/kg/injection, schedule: Q04DX003 (ip), vehicle: saline with Tween-80.

“And” between values parts separate entries of the source, which are not always exact repeats. Equal entries are not always repeated. Toxic doses and inconclusive results are not listed.

On to `COc1cc2c(c(OC)c1OC)-c1cc3c(cc1[C@@H](OC(C)=O)[C@@H]1COC(=O)[C@H]1C2)OCO3`, for which the T/C (endpoint: mean survival time, dose: 1.25 mg/kg/injection, schedule: Q01DX009 (ip), vehicle: Klucel (hydroxypropylcellulose) (HPC)) was 95 % of control; the T/C (endpoint: mean survival time, dose: 2.5 mg/kg/injection, schedule: Q01DX009 (ip), vehicle: Klucel (hydroxypropylcellulose) (HPC)) is 103 % of control; the T/C (endpoint: mean survival time, dose: 5.0 mg/kg/injection, schedule: Q01DX009 (ip), vehicle: Klucel (hydroxypropylcellulose) (HPC)) is 97 % of control; the T/C under setting [1] was 112 % of control.

As to `CN1C(C)(C)CC(CN2c3ccccc3Sc3ccccc32)C1(C)C` (stereo unspecified), the T/C is 97 % of control under setting [2] and 104 % of control under setting [3].

As for `CO[C@H]1C[C@](C)(O)Cc2cc3c(c(O)c21)C(=O)c1c(O)cc2c(c1C3=O)O[C@@H]1O[C@@]2(C)[C@H](O)[C@@H](N(C)C)[C@@H]1O`, the T/C is, setting by setting: (endpoint: mean survival time, dose: 0.78 mg/kg/injection, schedule: Q01DX009 (ip), vehicle: other) 123 % of control and 112 % of control; (endpoint: mean survival time, dose: 3.12 mg/kg/injection, schedule: Q01DX009 (ip), vehicle: other) 117 % of control; (endpoint: mean survival time, dose: 3.13 mg/kg/injection, schedule: Q01DX009 (ip), vehicle: other) 151 % of control; (endpoint: mean survival time, dose: 3.13 mg/kg/injection, schedule: Q01DX009 (oral), vehicle: other) 112 % of control; (endpoint: mean survival time, dose: 3.13 mg/kg/injection, schedule: Q01DX009 (oral), vehicle: saline) 102 % of control; (endpoint: mean survival time, dose: 6.25 mg/kg/injection, schedule: Q01DX009 (oral), vehicle: other) 116 % of control. The T/C is 116 % of control (endpoint: mean survival time, dose: 6.25 mg/kg/injection, schedule: Q01DX009 (oral), vehicle: saline); 153 % of control (endpoint: mean survival time, dose: 12.5 mg/kg/injection, schedule: Q01DX009 (oral), vehicle: other); 208 % of control (endpoint: mean survival time, dose: 25.0 mg/kg/injection, schedule: Q01DX009 (oral), vehicle: other); 183 % of control (endpoint: mean survival time, dose: 25.0 mg/kg/injection, schedule: Q01DX009 (oral), vehicle: saline); 102 % of control (endpoint: mean survival time, dose: 50.0 mg/kg/injection, schedule: Q01DX009 (oral), vehicle: other); 168 % of control (endpoint: mean survival time, dose: 50.0 mg/kg/injection, schedule: Q01DX009 (oral), vehicle: saline). Besides, the T/C runs as follows: (endpoint: median survival time, dose: 6.7 mg/kg/injection, schedule: Q01DX009 (ip), vehicle: other) 197 % of control and 225 % of control; (endpoint: median survival time, dose: 10.0 mg/kg/injection, schedule: Q01DX009 (ip), vehicle: other) 208 % of control and 250 % of control; (endpoint: median survival time, dose: 15.0 mg/kg/injection, schedule: Q01DX009 (ip), vehicle: other) 302 % of control and 332 % of control; (endpoint: median survival time, dose: 22.5 mg/kg/injection, schedule: Q01DX009 (ip), vehicle: other) 152 % of control and 169 % of control.

Turning to `Clc1ncnc2c1ncn2C1CCCCO1` (stereo unspecified), the T/C (endpoint: mean survival time, dose: 176.0 mg/kg/injection, schedule: Q01DX009 (ip), vehicle: other) is 117 % of control.

Take `O=C(O)c1ccccc1N(CCO)CCCl`: the T/C reads like this: (endpoint: mean survival time, dose: 3.13 mg/kg/injection, schedule: Q01DX009 (ip), vehicle: saline with Tween-80) 121 % of control and 110 % of control; (endpoint: mean survival time, dose: 6.25 mg/kg/injection, schedule: Q01DX009 (ip), vehicle: saline with Tween-80) 119 % of control; under setting [1], 186 % of control.

Turning to `Cc1oc2c(C)c3oc(=O)cc(C)c3cc2c1CCl`, the T/C was 101 % of control and 105 % of control under setting [4]; 96 % of control and 105 % of control under setting [5]; 96 % of control and 108 % of control under setting [6]; 109 % of control under setting [7]; 91 % of control under setting [8].

For `CN(/N=N/c1nc[nH]c1C(N)=O)C1CCCCC1`, the T/C is 105 % of control (endpoint: mean survival time, dose: 7.8 mg/kg/injection, schedule: Q01DX009 (ip), vehicle: Klucel (hydroxypropylcellulose) (HPC)); 124 % of control (endpoint: mean survival time, dose: 31.2 mg/kg/injection, schedule: Q01DX009 (ip), vehicle: Klucel (hydroxypropylcellulose) (HPC)); 122 % of control (endpoint: mean survival time, dose: 125.0 mg/kg/injection, schedule: Q01DX009 (ip), vehicle: Klucel (hydroxypropylcellulose) (HPC)); 70 % of control (endpoint: mean survival time, dose: 250.0 mg/kg/injection, schedule: Q01DX009 (ip), vehicle: Klucel (hydroxypropylcellulose) (HPC)).

For `S=C1SCCN1C1CCCCC1`, the T/C under setting [7] is 102 % of control; the T/C under setting [2] was 92 % of control; the T/C under setting [8] was 96 % of control; the T/C under setting [3] was 96 % of control; the T/C under setting [9] is 93 % of control; the T/C under setting [10] is 92 % of control.

Consider `O=P(Cc1ccccc1)(Cc1ccccc1)c1ccccc1`, for which the T/C (endpoint: mean survival time, dose: 75.0 mg/kg/injection, schedule: Q01DX001 (ip), vehicle: saline) was 95 % of control; the T/C (endpoint: mean survival time, dose: 150.0 mg/kg/injection, schedule: Q01DX001 (ip), vehicle: saline) was 93 % of control; the T/C (endpoint: mean survival time, dose: 300.0 mg/kg/injection, schedule: Q01DX001 (ip), vehicle: saline) is 100 % of control.

Consider `Cc1ccc(NC(=O)/C=C/C(=O)O)cc1`, for which the T/C is 105 % of control under setting [7], 107 % of control under setting [8] and 103 % of control under setting [9].

`CC(C)(C)c1ccc(C(=O)C2CC2)cc1`: the T/C is, setting by setting: under setting [2], 98 % of control; under setting [3], 96 % of control.

For the molecule `CCOC(=O)c1ccc(NC(=O)N(CC)c2ccccc2)cc1`, the T/C is, setting by setting: under setting [7], 96 % of control and 100 % of control; (endpoint: mean survival time, dose: 100.0 mg/kg/injection, schedule: Q04DX002 (ip), vehicle: saline with Tween-80) 100 % of control and 109 % of control; under setting [2], 94 % of control; under setting [8], 95 % of control and 104 % of control; (endpoint: mean survival time, dose: 200.0 mg/kg/injection, schedule: Q04DX002 (ip), vehicle: saline with Tween-80) 92 % of control and 102 % of control; under setting [3], 94 % of control. For the same molecule, the T/C was 96 % of control and 100 % of control under setting [9]; 94 % of control and 98 % of control (endpoint: mean survival time, dose: 400.0 mg/kg/injection, schedule: Q04DX002 (ip), vehicle: saline with Tween-80); 95 % of control under setting [10].

In the case of `Nc1cc(S(=O)(=O)O)c2cccnc2c1O`, the T/C runs as follows: (endpoint: mean survival time, dose: 100.0 mg/kg/injection, schedule: Q04DX003 (ip), vehicle: saline) 114 % of control; (endpoint: mean survival time, dose: 200.0 mg/kg/injection, schedule: Q04DX003 (ip), vehicle: saline) 108 % of control.

Turning to `BrCC1OCCCO1`, the T/C by setting is: under setting [4], 105 % of control; under setting [5], 111 % of control; under setting [6], 115 % of control.

Turning to `CCOC(=O)C(=CN1CCCCCC1)C(=O)OCC`, the T/C was 94 % of control under setting [7], 89 % of control under setting [8] and 94 % of control under setting [9].

As for `C=C(Cl)CN(CCCC(=O)O)c1ccccc1`, the T/C runs as follows: (endpoint: mean survival time, dose: 25.0 mg/kg/injection, schedule: Q01DX009 (ip), vehicle: other) 95 % of control; (endpoint: mean survival time, dose: 50.0 mg/kg/injection, schedule: Q01DX009 (ip), vehicle: other) 89 % of control; (endpoint: mean survival time, dose: 100.0 mg/kg/injection, schedule: Q01DX009 (ip), vehicle: other) 97 % of control.

Turning to `c1csc(CCc2nc3ccccc3o2)c1`, the T/C is 103 % of control (endpoint: mean survival time, dose: 100.0 mg/kg/injection, schedule: Q01DX001 (ip), vehicle: saline with Tween-80); 93 % of control under setting [7]; 98 % of control (endpoint: mean survival time, dose: 200.0 mg/kg/injection, schedule: Q01DX001 (ip), vehicle: saline with Tween-80); 97 % of control under setting [8]; 112 % of control (endpoint: mean survival time, dose: 400.0 mg/kg/injection, schedule: Q01DX001 (ip), vehicle: saline with Tween-80); 93 % of control under setting [9].

For `COc1ccc(NC(=O)CCC(=O)Oc2ccccc2)cc1`, the T/C runs as follows: under setting [7], 94 % of control; under setting [2], 100 % of control; under setting [8], 97 % of control; under setting [3], 100 % of control; under setting [9], 94 % of control; under setting [10], 94 % of control.
